A word on the IC50: it is the point on the concentration scale where inhibition reaches its midpoint.

T1 sequence (J9SQF3 1-1709 isoform J9SQF3-12): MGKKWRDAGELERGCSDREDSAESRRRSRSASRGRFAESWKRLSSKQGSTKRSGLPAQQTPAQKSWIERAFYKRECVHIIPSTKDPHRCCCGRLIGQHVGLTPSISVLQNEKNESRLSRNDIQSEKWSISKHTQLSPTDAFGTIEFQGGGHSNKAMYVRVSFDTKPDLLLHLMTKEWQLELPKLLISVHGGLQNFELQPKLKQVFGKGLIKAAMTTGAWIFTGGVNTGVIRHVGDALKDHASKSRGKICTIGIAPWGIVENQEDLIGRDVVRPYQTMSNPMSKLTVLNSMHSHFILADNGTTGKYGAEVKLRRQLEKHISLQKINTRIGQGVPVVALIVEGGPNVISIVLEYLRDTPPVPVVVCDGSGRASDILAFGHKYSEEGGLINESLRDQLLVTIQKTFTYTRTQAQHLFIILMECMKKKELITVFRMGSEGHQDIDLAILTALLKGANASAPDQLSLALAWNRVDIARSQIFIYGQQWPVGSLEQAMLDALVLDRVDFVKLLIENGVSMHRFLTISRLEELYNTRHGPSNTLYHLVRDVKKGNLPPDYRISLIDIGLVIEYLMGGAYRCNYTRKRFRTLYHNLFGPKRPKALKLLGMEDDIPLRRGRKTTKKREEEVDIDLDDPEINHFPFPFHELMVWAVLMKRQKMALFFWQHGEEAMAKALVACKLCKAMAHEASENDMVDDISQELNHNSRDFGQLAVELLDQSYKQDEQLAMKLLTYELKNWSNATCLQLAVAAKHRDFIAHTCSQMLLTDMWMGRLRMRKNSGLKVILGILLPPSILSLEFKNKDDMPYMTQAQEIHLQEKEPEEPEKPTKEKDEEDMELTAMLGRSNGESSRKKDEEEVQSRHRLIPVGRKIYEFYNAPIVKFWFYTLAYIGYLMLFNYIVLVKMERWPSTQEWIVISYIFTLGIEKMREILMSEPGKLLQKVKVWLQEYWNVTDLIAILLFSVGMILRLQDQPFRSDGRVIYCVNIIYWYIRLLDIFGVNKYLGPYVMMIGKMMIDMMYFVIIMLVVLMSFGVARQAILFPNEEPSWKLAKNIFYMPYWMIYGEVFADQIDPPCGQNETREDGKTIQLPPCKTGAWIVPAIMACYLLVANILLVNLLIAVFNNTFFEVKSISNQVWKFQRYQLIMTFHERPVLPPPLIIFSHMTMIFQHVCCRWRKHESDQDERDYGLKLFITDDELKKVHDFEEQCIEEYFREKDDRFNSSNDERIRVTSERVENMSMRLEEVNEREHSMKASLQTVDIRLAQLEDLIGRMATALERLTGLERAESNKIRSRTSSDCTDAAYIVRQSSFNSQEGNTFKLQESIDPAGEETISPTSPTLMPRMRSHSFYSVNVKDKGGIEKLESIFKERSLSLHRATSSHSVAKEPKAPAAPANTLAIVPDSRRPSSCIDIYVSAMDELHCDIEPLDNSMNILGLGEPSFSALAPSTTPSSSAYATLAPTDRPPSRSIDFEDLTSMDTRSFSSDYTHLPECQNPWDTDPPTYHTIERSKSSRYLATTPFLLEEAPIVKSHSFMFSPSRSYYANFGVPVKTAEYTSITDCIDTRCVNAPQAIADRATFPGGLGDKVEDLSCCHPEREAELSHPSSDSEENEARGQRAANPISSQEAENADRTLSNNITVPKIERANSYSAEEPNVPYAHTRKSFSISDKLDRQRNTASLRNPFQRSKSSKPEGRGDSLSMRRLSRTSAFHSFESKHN

This experiment has as its target T1, mouse TRPM3α2 (mTRPM3) ion channel (Mus musculus, UniProt J9SQF3).
T1 construct: expressed in transfected cells; host or cells: flip-in HEK293
As to the kind of experiment: TRPM3 ion channel driven Ca2+ uptake, Fluo-4 AM assay, PS-stimulated (mTRPM3). The settings on record: TRPM3 overexpressing flip-in HEK293 cells stimulated with Pregnenolone sulfate (PS) 50 μM, activity ranges A, B, C. Type of experiment: cell-based. The gist of the method: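 Flp-In HEK293 cells overexpressing mTRPM3α2 were added, in Ca²⁺-free Krebs, to wells already holding compound and 50 μM pregnenolone sulfate in Ca²⁺-containing Krebs. Fluo-4 AM fluorescence (ex 485/em 535 nm) was read immediately. Percent inhibition was computed from RFU relative to PS/vehicle wells and a positive-control inhibitor.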
Molecule `Cc1oc2ccc(OCc3ccccc3S(C)(=O)=O)cc2c1C(=O)NC1(CO)CCOCC1` [Cpd 332, N-(4-(hydroxymethyl)tetrahydro-2H-pyran-4-yl)-2-methyl-5-((2-(methylsulfonyl)benzyl)oxy)benzofuran-3-carboxamide] came in with a 50% inhibitory concentration (IC50) of 1000 to 20000 nM.
The figure for `Cc1oc2ccc(OCc3ccccc3)c(C#N)c2c1C(=O)NC1CNCC1(F)F` (single isomer, unassigned) [Cpd 297-En 1, 5-(benzyloxy)-4-cyano-N-(4,4-difluoropyrrolidin-3-yl)-2-methylbenzofuran-3-carboxamide] is under 1000 nM.
`CCN1CCC[C@H]1CNC(=O)c1c(C)oc2ccc(OCc3ccccc3)cc12` [Cpd 152, (S)-5-(benzyloxy)-N-((l-ethylpyrrolidin-2-yl)methyl)-2-methylbenzofuran-3-carboxamide] had an IC50 of 1000 to 20000 nM.
Then `Cc1oc2ccc(OCc3cccc(C(F)(F)F)c3)cc2c1C(=O)O` [Cpd 025, 2-methyl-5-((3-(trifluoromethyl)benzyl)oxy)benzofuran-3-carboxylic acid], with 1000 to 20000 nM; and `Cc1oc2ccc(OCc3ccccc3)cc2c1C(=O)NC1CCN(C(=O)OC(C)(C)C)C(C)C1` (stereo not drawn) [Cpd 252, tert-butyl cis-4-(5-(benzyloxy)-2-methylbenzofuran-3-carboxamido)-2-methylpiperidine-1-carboxylate], with 1000 to 20000 nM; and `CCN1CCCN(C(=O)c2c(C)oc3ccc(OCc4ccccc4)cc23)CC1` [Cpd 149, (5-(benzyloxy)-2-methylbenzofuran-3-yl)(4-ethyl-1,4-diazepan-1-yl)methanone], with over 20000 nM.
Regarding `Cc1oc2ccc(OCc3ccccc3)cc2c1C(=O)NCc1ccccc1` [Cpd 098, N-benzyl-5-(benzyloxy)-2-methylbenzofuran-3-carboxamide], the IC50 was over 20000 nM.
Then `Cc1oc2ccc(OCc3ccccc3)cc2c1C(=O)N[C@H]1C[C@H]2C(=O)N(C)CC(=O)N2C1` [Cpd 235, 5-(benzyloxy)-2-methyl-N-((7S,8aS)-2-methyl-1,4-dioxooctahydropyrrolo[1,2-a]pyrazin-7-yl)benzofuran-3-carboxamide], with 1000 to 20000 nM.
The figure for `Cc1oc2ccc(OC(CO)c3ccccc3F)cc2c1C(=O)NC1(C(N)=O)CCC1` (single isomer, unassigned) [Cpd 345-En 1, N-(1-carbamoylcyclobutyl)-5-(1-(2-fluorophenyl)-2-hydroxyethoxy)-2-methylbenzofuran-3-carboxamide] is under 1000 nM; for `Cc1oc2ccc(OCc3ccccc3)cc2c1C(=O)N1CCC(NC(=O)OC(C)(C)C)CC1` [Cpd 248, tert-butyl (1-(5-(benzyloxy)-2-methylbenzofuran-3-carbonyl)piperidin-4-yl)carbamate] it is over 20000 nM.
Molecule `Cc1oc2ccc(COc3ccccc3F)cc2c1C(=O)NC(CO)C(N)=O` (single isomer, unassigned) [Cpd 321-En 2, N-(1-amino-3-hydroxy-1-oxopropan-2-yl)-5-((2-fluorophenoxy)methyl)-2-methylbenzofuran-3-carboxamide] registered an IC50 of under 1000 nM.
Then `Cc1oc2ccc(OCc3ccccc3F)cc2c1C(=O)NC(C)CO` (single isomer, unassigned) [Cpd 328-En 2], with under 1000 nM.
The molecule `O=C(O)c1c(C2CCCC2)oc2ccc(OCc3ccccc3)cc12` [Cpd 023, 5-(benzyloxy)-2-cyclopentylbenzofuran-3-carboxylic acid] returned an IC50 of over 20000 nM.
Molecule `CCN1CCC(NC(=O)c2c(C)oc3ccc(OCc4ccccc4)cc23)CC1` [Cpd 151, 5-(benzyloxy)-N-(1-ethylpiperidin-4-yl)-2-methylbenzofuran-3-carboxamide] displayed an IC50 of under 1000 nM.
As to `COc1ccccc1COc1ccc2oc(C)c(C(=O)O)c2c1` [Cpd 013, 5-((2-methoxybenzyl)oxy)-2-methylbenzofuran-3-carboxylic acid], the IC50 lay within 1000 to 20000 nM.
In the case of `Cc1oc2ccc(OCc3c(F)cccc3Cl)cc2c1C(N)=O` [Cpd 041, 5-((2-chloro-6-fluorobenzyl)oxy)-2-methylbenzofuran-3-carboxamide], the IC50 is under 1000 nM.
The figure for `Cc1oc2ccc(OCc3ccccc3)cc2c1C(=O)N[C@@H]1CCN(C(=O)OC(C)(C)C)C1` [Cpd 238, tert-butyl (R)-3-(5-(benzyloxy)-2-methylbenzofuran-3-carboxamido)pyrrolidine-1-carboxylate] is over 20000 nM; for `Cc1oc2ccc(OCc3ccccc3)cc2c1C(=O)N[C@@H]1CN[C@H](CO)C1` [Cpd 126, 5-(benzyloxy)-N-((3S,5S)-5-(hydroxymethyl)pyrrolidin-3-yl)-2-methylbenzofuran-3-carboxamide] it is under 1000 nM; for `CNC(=O)c1c(C)oc2ccc(OCc3c(F)cccc3Cl)cc12` [Cpd 045, 5-((2-chloro-6-fluorobenzyl)oxy)-N,2-dimethylbenzofuran-3-carboxamide] it is under 1000 nM.
The figure for `Cc1oc2cc(Cl)c(OCc3ccccc3)cc2c1C(=O)NC1CNCC1(F)F` (single isomer, unassigned) [Cpd 300-En 1, 5-(benzyloxy)-6-chloro-N-(4,4-difluoropyrrolidin-3-yl)-2-methylbenzofuran-3-carboxamide] is 1000 to 20000 nM; for `Cc1oc2ccc(OCc3ccccc3)cc2c1C(=O)N[C@H]1CC[C@@H](O)CC1` [Cpd 125, 5-(benzyloxy)-N-(cis-4-hydroxycyclohexyl)-2-methylbenzofuran-3-carboxamide] it is under 1000 nM.
In turn, `Cc1oc2ccc(OCc3ccccc3)cc2c1C(=O)N[C@H]1CCCN(C2COC2)C1` [Cpd 206, (S)-5-(benzyloxy)-2-methyl-N-(1-(oxetan-3-yl)piperidin-3-yl)benzofuran-3-carboxamide] showed an IC50 of 1000 to 20000 nM.
Then `Cc1oc2ccc(OCc3ccccc3)cc2c1C(=O)Nc1cnccn1` [Cpd 061, 5-(benzyloxy)-2-methyl-N-(pyrazin-2-yl)benzofuran-3-carboxamide], with under 1000 nM; and `Cc1oc2ccc(OCc3ccccc3F)cc2c1C(=O)NC1CCNC1=O` (centres unmarked) [Cpd 129, 5-((2-fluorobenzyl)oxy)-2-methyl-N-(2-oxopyrrolidin-3-yl)benzofuran-3-carboxamide], with under 1000 nM; and `Cc1oc2ccc(OCc3ccccc3)cc2c1C(=O)NC1CCN(C(=O)OC(C)(C)C)CC1(F)F` (centres unmarked) [Cpd 263, tert-butyl 4-(5-(benzyloxy)-2-methylbenzofuran-3-carboxamido)-3,3-difluoropiperidine-1-carboxylate], with under 1000 nM.
The figure for `Cc1oc2ccc(OCc3cccc(CNC(=O)OC(C)(C)C)c3)cc2c1C(=O)NC1CCNC1=O` (centres unmarked) [Cpd 261, tert-butyl (3-(((2-methyl-3-((2-oxopyrrolidin-3-yl)carbamoyl)benzofuran-5-yl)oxy)methyl)-benzyl)carbamate] is over 20000 nM.
In turn, `Cc1oc2ccc(OCc3ccccc3)cc2c1C(=O)NCC1(N(C)C)CCCC1` [Cpd 187, 5-(benzyloxy)-N-((1-(dimethylamino)cyclopentyl)methyl)-2-methylbenzofuran-3-carboxamide] had an IC50 of under 1000 nM.
Then `COc1cccc(COc2ccc3oc(C)c(C(=O)N[C@H]4CCNC4)c3c2)c1` [Cpd 127, (S)-5-((3-methoxybenzyl)oxy)-2-methyl-N-(pyrrolidin-3-yl)benzofuran-3-carboxamide], with under 1000 nM; and `Cc1oc2ccc(OCc3ccccc3F)cc2c1C(=O)NC1(C(N)=O)CCOC1` (single isomer, unassigned) [Cpd 323-En 2, N-(3-carbamoyltetrahydrofuran-3-yl)-5-((2-fluorobenzyl)oxy)-2-methylbenzofuran-3-carboxamide], with under 1000 nM.
Then `Cc1oc2ccc(OCc3ccccc3F)cc2c1C(=O)NC(C)(CO)CO` [Cpd 312, N-(1,3-dihydroxy-2-methylpropan-2-yl)-5-((2-fluorobenzyl)oxy)-2-methylbenzofuran-3-carboxamide], with under 1000 nM; and `Cc1oc2ccc(OCc3ccccc3)cc2c1C(=O)NC1CC(C)(C)NC(C)(C)C1` [Cpd 209, 5-(benzyloxy)-2-methyl-N-(2,2,6,6-tetramethylpiperidin-4-yl)benzofuran-3-carboxamide], with 1000 to 20000 nM; and `Cc1oc2ccc(OCc3ccccc3)cc2c1C(=O)NC1CNC1` [Cpd 042, N-(azetidin-3-yl)-5-(benzyloxy)-2-methylbenzofuran-3-carboxamide], with over 20000 nM.
`Cc1oc2ccc(OC(C)(C)c3ccccc3)cc2c1C(=O)NC1(CO)CCOCC1` [Cpd 316, N-(4-(hydroxymethyl)tetrahydro-2H-pyran-4-yl)-2-methyl-5-((2-phenylpropan-2-yl)oxy)benzofuran-3-carboxamide] returned an IC50 of under 1000 nM.
For the molecule `CCOC(=O)c1coc2ccc(OCc3ccccc3)cc12` [Cpd 029, ethyl 5-(benzyloxy)benzofuran-3-carboxylate], the IC50 is over 20000 nM.
Then `Cc1oc2ccc(OCc3ccccc3C(F)(F)F)cc2c1C(=O)NC1CCN(C)CC1` [Cpd 233, 2-methyl-N-(1-methylpiperidin-4-yl)-5-((2-(trifluoromethyl)benzyl)oxy)benzofuran-3-carboxamide], with 1000 to 20000 nM; and `CCc1oc2ccc(OCc3cccc(F)c3)cc2c1C(=O)NC1CCN(C)CC1` [Cpd 194, 2-ethyl-5-((3-fluorobenzyl)oxy)-N-(1-methylpiperidin-4-yl)benzofuran-3-carboxamide], with 1000 to 20000 nM.
The figure for `Cc1oc2ccc(OCc3ccccc3C(F)(F)F)cc2c1C(=O)NC1CCNC1=O` (centres unmarked) [Cpd 219, 2-methyl-N-(2-oxopyrrolidin-3-yl)-5-((2-(trifluoromethyl)benzyl)oxy)benzofuran-3-carboxamide] is under 1000 nM; for `Cc1ccc(COc2ccc3oc(C)c(C(=O)N[C@H]4CCNC4)c3c2)cc1` [Cpd 085, (S)-2-methyl-5-((4-methylbenzyl)oxy)-N-(pyrrolidin-3-yl)benzofuran-3-carboxamide] it is under 1000 nM.

The values above are taken from patent US20230391739A1, “ARYL DERIVATIVES FOR TREATING TRPM3 MEDIATED DISORDERS” (Katholieke Universiteit Leuven, priority 2020, published 2023).
